Experimental findings from paper PMC8279492, “Quinolinonyl Non-Diketo Acid Derivatives as Inhibitors of HIV-1 Ribonuclease H and Polymerase Functions of Reverse Transcriptase” (Journal of Medicinal Chemistry, 2021) are described below.

In data set [1] the target is T1, HIV-1 RT-associated RNase H activity (Human immunodeficiency virus type 1 group M subtype B, UniProt P03366).
T1 construct: His-tagged p66/p51 HIV-1 RT group M subtype B; His; made in house; host or cells: Escherichia coli M15
The data set can be described thus: biochemical. In kind it is biochemical. How it is done:
(11) and β-thujaplicinol (BTP) used as positive controls.
His-tagged p66/p51 HIV-1 RT group M subtype B coded in a p6HRT-prot plasmid was expressed in the Escherichia coli strain M15.[65] Heterodimeric RTs were expressed essentially and purified as described.[66]
The HIV-1 RT-associated RNase H activity was measured as described.[68] Briefly, the reaction was carried out in a black 96-well plate in a total volume of 100 μL. […] Experiments were performed in duplicate and replicated at least two times. Data were analyzed as described.[36]

The next data set concerns HIV-1 replication. The experiment in a line: HIV-1 replication in HeLa-CD4-LTR-β-gal reporter cells. As to conditions: Human immunodeficiency virus 1; HeLa-CD4-LTR-β-gal cells, 24 h post infection; read-out: antiviral activity EC50. In kind it is cell-based. As to the method: (§1) HIV-1 replication was monitored using HeLa-CD4-LTR-β-gal reporter cells as previously described.[69] Briefly, β-galactosidase activity was monitored 24 h post infection using a replication-competent HIV produced in-house (H9-laï coculture) and a serial dilution of molecules or an equivalent volume of DMSO. In parallel, compounds’ toxicity was determined at 24 h in the same cell line using CellTiter 96 AQueous One Solution Cell Proliferation Assay (Promega, France).

The nature of data set [2]: Compounds' toxicity, CellTiter 96 AQueous One Solution Cell Proliferation Assay. In kind it is cell-based. As to conditions: human, HeLa-CD4-LTR-β-gal cells. As to the method: as §1
[3] abbreviates: anti-RH activity (IC50 ± SD), HIV-1 RT-associated RNase H activity, dose-response curves, no preincubation.
[4] abbreviates: CC50 (cytotoxic concentration 50%), 24 h.
[5] abbreviates: HIV-1 RT-associated RNase H activity, dose-response curves, no preincubation.

Like-named read-outs stand apart in the source and are kept apart here. Bounds are passed on as bounds.

Broadly, the IC50 is the point on the concentration scale where inhibition reaches its midpoint. Lower therefore signals greater potency in that assay. What is called EC50 is the midpoint of the concentration-response curve. What is called CC50 is the concentration that lowers cell viability or growth by half.

Regarding `O=C(O)c1cn(Cc2ccc(F)cc2)c2ccc(OCc3ccc4ccccc4c3)cc2c1=O` [4p, 1-(4-Fluorobenzyl)-6-(naphthalen-2-ylmethoxy)-4-oxo-1,4-dihydroquinoline-3-carboxylic Acid], the IC50 in data set [1] (RH IC50 (uM), supplement CSV) turned out to be 30.3 ± 1.69 µM; in data set [1] (setting [3]), 30.3 ± 1.7 µM. Moreover, the EC50 in the data set with HIV-1 replication was > 50 µM. In addition, the CC50 at 24 h in data set [2] (setting [4]) is > 200 µM; in data set [2] (supplement CSV, read-out: CC50) it was > 50 µM.

Consider `N#Cc1ccc2c(c1)c(=O)c(C(=O)O)cn2Cc1ccc(F)cc1` [4b, 6-Cyano-1-(4-fluorobenzyl)-4-oxo-1,4-dihydroquinoline-3-carboxylic Acid], for which, in data set [1] (setting [3]), the IC50 is > 100 µM.

On to `CCOC(=O)c1cn(Cc2ccc(F)cc2)c2ccc(C(F)(F)F)cc2c1=O` [5c, Ethyl 1-(4-Fluorobenzyl)-4-oxo-6-(trifluoromethyl)-1,4-dihydroquinoline-3-carboxylate], for which the midpoint of inhibition in data set [1] (setting [3]), the IC50, lay at 59 ± 5 µM.

Consider `O=C(O)c1cn(Cc2ccc(F)cc2)c2ccc([N+](=O)[O-])cc2c1=O` [4e, 1-(4-Fluorobenzyl)-6-nitro-4-oxo-1,4-dihydroquinoline-3-carboxylic Acid], for which, in data set [1] (setting [3]), the IC50 was 56 ± 4 µM.

Regarding `CCOC(=O)c1cn(Cc2ccc(F)cc2)c2ccc(OCCCN(C)C)cc2c1=O` [5j, Ethyl 6-(3-(Dimethylamino)propoxy)-1-(4-fluorobenzyl)-4-oxo-1,4-dihydroquinoline-3-carboxylate], in data set [1] (setting [3]), the IC50 is > 100 µM.

As to `CCOC(=O)c1cn(Cc2ccc(F)cc2)c2ccc(OCCCCc3ccccc3)cc2c1=O` [5r, Ethyl 1-(4-Fluorobenzyl)-4-oxo-6-(4-phenylbutoxy)-1,4-dihydroquinoline-3-carboxylate], the IC50 in data set [1] (RH IC50 (uM), supplement CSV) came out at 28.4 ± 4.3 µM; in data set [1] (setting [3]), 28.4 ± 4.3 µM. Besides, the EC50 in the data set on HIV-1 replication was > 16 µM. The CC50 at 24 h in data set [2] (setting [4]) was > 200 µM; in data set [2] (supplement CSV, read-out: CC50), > 50 µM.

Turning to `CCOC(=O)c1cn(Cc2ccc(F)cc2)c2ccc(S(C)(=O)=O)cc2c1=O` [5f, Ethyl 1-(4-Fluorobenzyl)-6-(methylsulfonyl)-4-oxo-1,4-dihydroquinoline-3-carboxylate], the IC50 in data set [1] (setting [3]) was > 100 µM.

Consider `CCOC(=O)c1cn(Cc2ccc(F)cc2)c2ccc(OCc3ccc4c(c3)OCO4)cc2c1=O` [5q, Ethyl 6-(Benzo[d][1,3]dioxol-5-ylmethoxy)-1-(4-fluorobenzyl)-4-oxo-1,4-dihydroquinoline-3-carboxylate], for which the midpoint of inhibition in data set [1] (setting [3]), the IC50, lay at 55.3 ± 1.7 µM.

As to `O=C(O)c1cn(Cc2ccc(F)cc2)c2ccc(O)cc2c1=O` [4g, 1-(4-Fluorobenzyl)-6-hydroxy-4-oxo-1,4-dihydroquinoline-3-carboxylic Acid], the IC50 in data set [1] (setting [3]) is 74 ± 9 µM.

In data set [1] (setting [3]), `CCOC(=O)c1cn(Cc2ccc(F)cc2)c2ccc(/C=C/C(=O)c3ccccc3)cc2c1=O` [5k, (E)-Ethyl 1-(4-Fluorobenzyl)-4-oxo-6-(3-oxo-3-phenylprop-1-en-1-yl)-1,4-dihydroquinoline-3-carboxylate] yielded an IC50 of 15.3 ± 1.6 µM. The EC50 in the data set with HIV-1 replication was > 50 µM. For the same compound, the CC50 at 24 h in data set [2] (setting [4]) is > 100 µM.

The compound `CCOC(=O)c1cn(Cc2ccc(F)cc2)c2ccc(OCc3ccccc3)cc2c1=O` [5l, Ethyl 6-(Benzyloxy)-1-(4-fluorobenzyl)-4-oxo-1,4-dihydroquinoline-3-carboxylate] gave an IC50 in data set [1] (setting [3]) of 8 ± 1.6 µM. Besides, the EC50 with HIV-1 replication is > 100 µM. The CC50 at 24 h in data set [2] (setting [4]) was > 100 µM.

Regarding `CCOC(=O)c1cn(Cc2ccc(F)cc2)c2ccc(OCc3ccc(OCc4ccccc4)cc3)cc2c1=O` [5t, Ethyl 6-((4-(Benzyloxy)benzyl)oxy)-1-(4-fluorobenzyl)-4-oxo-1,4-dihydroquinoline-3-carboxylate], in data set [1] (setting [3]), the IC50 was > 100 µM.

For the compound `CCOC(=O)c1cn(Cc2ccc(F)cc2)c2ccc(O)cc2c1=O` [5g, Ethyl 1-(4-Fluorobenzyl)-6-hydroxy-4-oxo-1,4-dihydroquinoline-3-carboxylate], the IC50 in data set [1] (setting [3]) was > 100 µM.

Turning to `O=C(O)c1cn(Cc2ccc(F)cc2)c2ccc(C(F)(F)F)cc2c1=O` [4c, 1-(4-Fluorobenzyl)-4-oxo-6-(trifluoromethyl)-1,4-dihydroquinoline-3-carboxylic Acid], the IC50 in data set [1] (setting [3]) was > 100 µM.

For `CC(C)c1ccc(O)c(=O)c(O)c1` [BTP, β-thujaplicinol, reference compound], 0.19 ± 0.03 µM corresponded to half-maximal inhibition in data set [1] (setting [3]) (IC50).

Compound `CS(=O)(=O)c1ccc2c(c1)c(=O)c(C(=O)O)cn2Cc1ccc(F)cc1` [4f, 1-(4-Fluorobenzyl)-6-(methylsulfonyl)-4-oxo-1,4-dihydroquinoline-3-carboxylic Acid] registered an IC50 in data set [1] (setting [3]) of 100 µM.

In data set [1] (setting [3]), `O=C(O)c1cn(Cc2ccc(F)cc2)c2ccc(OCCCCc3ccccc3)cc2c1=O` [4r, 1-(4-Fluorobenzyl)-4-oxo-6-(4-phenylbutoxy)-1,4-dihydroquinoline-3-carboxylic Acid] gave an IC50 of 8.27 ± 0.45 µM. In the data set with HIV-1 replication, the EC50 was > 50 µM. The CC50 at 24 h is > 200 µM in data set [2] (setting [4]) and > 50 µM in data set [2] (supplement CSV, read-out: CC50).

`O=C(O)c1cn(Cc2ccc(F)cc2)c2ccccc2c1=O` [4a, 1-(4-Fluorobenzyl)-4-oxo-1,4-dihydroquinoline-3-carboxylic Acid]: in data set [1] (setting [3]), the IC50 was > 100 µM.

As to `CCOC(=O)c1cn(Cc2ccc(F)cc2)c2ccc(C#N)cc2c1=O` [5b, Ethyl 6-Cyano-1-(4-fluorobenzyl)-4-oxo-1,4-dihydroquinoline-3-carboxylate], the IC50 in data set [1] (setting [3]) was > 100 µM.

In turn, `CCOC(=O)c1cn(Cc2ccc(F)cc2)c2ccc([N+](=O)[O-])cc2c1=O` [5e, Ethyl 1-(4-Fluorobenzyl)-6-nitro-4-oxo-1,4-dihydroquinoline-3-carboxylate] had an IC50 in data set [1] (setting [3]) of 47.8 ± 10 µM.

Turning to `CCOC(=O)c1cn(Cc2ccc(F)cc2)c2ccc(OC)cc2c1=O` [5h, Ethyl 1-(4-Fluorobenzyl)-6-methoxy-4-oxo-1,4-dihydroquinoline-3-carboxylate], in data set [1] (setting [5]), the “anti-RH activity (IC50 ± SD)” value was “no activity”. For the same compound, the IC50 in data set [1] (setting [3]) was > 100 µM.

`CN(C)CCCOc1ccc2c(c1)c(=O)c(C(=O)O)cn2Cc1ccc(F)cc1` [4j, 6-(3-(Dimethylamino)propoxy)-1-(4-fluorobenzyl)-4-oxo-1,4-dihydroquinoline-3-carboxylic Acid] returned an IC50 in data set [1] (setting [3]) of 15.4 ± 3 µM.

In data set [1] (setting [3]), `O=C(O)c1cn(Cc2ccc(F)cc2)c2ccc(Oc3ccccc3)cc2c1=O` [4i, 1-(4-Fluorobenzyl)-4-oxo-6-phenoxy-1,4-dihydroquinoline-3-carboxylic Acid] came in with an IC50 of 32 ± 11 µM.

`COc1ccc2c(c1)c(=O)c(C(=O)O)cn2Cc1ccc(F)cc1` [4h, 1-(4-Fluorobenzyl)-6-methoxy-4-oxo-1,4-dihydroquinoline-3-carboxylic Acid]: in data set [1] (setting [5]), the “anti-RH activity (IC50 ± SD)” value is “no activity”. Moreover, in data set [1] (setting [3]), the IC50 was > 100 µM.

Turning to `CCOC(=O)c1cn(Cc2ccc(F)cc2)c2ccc(OCc3ccc4ccccc4c3)cc2c1=O` [5p, Ethyl 1-(4-Fluorobenzyl)-6-(naphthalen-2-ylmethoxy)-4-oxo-1,4-dihydroquinoline-3-carboxylate], 19.6 µM corresponded to half-maximal inhibition in data set [1] (setting [3]) (IC50). In addition, the EC50 with HIV-1 replication was > 50 µM. In addition, the CC50 at 24 h was 73 ± 24 µM in data set [2] (setting [4]) and > 50 µM in data set [2] (supplement CSV, read-out: CC50).

In the case of `CCOC(=O)c1cn(Cc2ccc(F)cc2)c2ccc(Oc3ccccc3)cc2c1=O` [5i, Ethyl 1-(4-Fluorobenzyl)-4-oxo-6-phenoxy-1,4-dihydroquinoline-3-carboxylate], in data set [1] (setting [3]), half-maximal inhibition (IC50) was put at 45.5 ± 1.5 µM.

In the case of `CCOC(=O)c1cn(Cc2ccc(F)cc2)c2ccc(OCc3ccc(-c4ccccc4)cc3)cc2c1=O` [5s, Ethyl 6-([1,1′-Biphenyl]-4-ylmethoxy)-1-(4-fluorobenzyl)-4-oxo-1,4-dihydroquinoline-3-carboxylate], the IC50 in data set [1] (setting [3]) is > 100 µM.
